Test results as given in patent US5849695A, “Parathyroid hormone analogues useful for treatment of osteoporosis and disorders of calcium meatabolism in mammals” (The Regents of the University of California, priority 1993, dated 1998).
Like-named read-outs stand apart in the source and are kept apart here.

What was measured:
PTH receptor [1] = target: T1, PTH receptor (Rattus norvegicus, UniProt P25961); format: cell-based; conditions: for BONE CELLS Rat(UMR-106) Activity (AC): Table 5A, intact cells, hPTH(1-34) = 100
T1 construct: endogenous in cells; host or cells: UMR 106-H5 rat osteosarcoma cells
T1 sequence (P25961 27-591): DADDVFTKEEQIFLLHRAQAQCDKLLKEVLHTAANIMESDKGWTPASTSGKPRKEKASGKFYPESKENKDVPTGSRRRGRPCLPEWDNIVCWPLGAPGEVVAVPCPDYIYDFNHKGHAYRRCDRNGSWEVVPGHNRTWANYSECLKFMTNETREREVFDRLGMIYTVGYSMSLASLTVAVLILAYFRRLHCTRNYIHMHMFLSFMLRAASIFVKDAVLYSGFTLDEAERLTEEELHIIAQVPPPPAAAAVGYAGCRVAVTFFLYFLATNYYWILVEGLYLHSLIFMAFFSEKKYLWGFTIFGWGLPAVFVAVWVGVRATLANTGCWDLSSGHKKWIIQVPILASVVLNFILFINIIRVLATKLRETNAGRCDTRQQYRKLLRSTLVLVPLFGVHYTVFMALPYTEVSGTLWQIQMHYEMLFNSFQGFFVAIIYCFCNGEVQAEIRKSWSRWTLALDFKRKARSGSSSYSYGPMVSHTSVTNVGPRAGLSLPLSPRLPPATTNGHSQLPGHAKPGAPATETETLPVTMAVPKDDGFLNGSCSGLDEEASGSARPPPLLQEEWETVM
Protocol: (§1) Assays were conducted using UMR-160-H5 cells. These assays were performed as described in Cohen et al. (1991), J. Biological Chem., 266(3), 1997 and in the Experimental section, e.g. Example 11. Receptor binding assays were carried out in canine renal plasma membranes and in UMR 106-H5 rat osteosarcoma cells as previously described in detail (Ref. 14,32), using ^125 I-labeled PTH(1-34)amide as the radioligand. Binding potency (IC50) was quantified as the concentration of unlabeled peptide required for half-maximal displacement of the radioligand. […] Adenylate cyclase activity was assessed in canine renal membranes by the conversion of [α-32p ] ATP to [^32 P] cyclic AMP, essentially as described, except for the addition of 100 micromolar GTP (Ref. 33,34). Adenylate cyclase activity in UMR 106-H5 cells was assessed essentially as described (Ref. 35). In brief, cells were incubated with [3H]adenine 1 micro Ci/ml of serum-free MEM for two hours at 37° C. to label the endogenous ATP pool. Cells were then exposed to 0.4 mM IBMX for 10 min, followed by the appropriate peptide for an additional 10 min at ambient temperature. The cells are then scraped in 20% TCA, and [3H]cyclic AMP is isolated by the column procedure of Salomon et al. (Ref. 36). Potency in the adenylate cyclase assays (Ka) is the concentration of peptide producing half-maximal enzyme activation.

PTH receptor [2] = tested on: PTH receptor
PTH receptor [3] = target: T2, PTH receptor (Homo sapiens, UniProt Q03431); format: cell-based; design: In intact rat (UMR-106) and human (SaOS-2) bone cell lines; endogenous in cells; host or cells: SaOS-2 human bone (osteosarcoma) cells
T2 sequence (Q03431 27-593): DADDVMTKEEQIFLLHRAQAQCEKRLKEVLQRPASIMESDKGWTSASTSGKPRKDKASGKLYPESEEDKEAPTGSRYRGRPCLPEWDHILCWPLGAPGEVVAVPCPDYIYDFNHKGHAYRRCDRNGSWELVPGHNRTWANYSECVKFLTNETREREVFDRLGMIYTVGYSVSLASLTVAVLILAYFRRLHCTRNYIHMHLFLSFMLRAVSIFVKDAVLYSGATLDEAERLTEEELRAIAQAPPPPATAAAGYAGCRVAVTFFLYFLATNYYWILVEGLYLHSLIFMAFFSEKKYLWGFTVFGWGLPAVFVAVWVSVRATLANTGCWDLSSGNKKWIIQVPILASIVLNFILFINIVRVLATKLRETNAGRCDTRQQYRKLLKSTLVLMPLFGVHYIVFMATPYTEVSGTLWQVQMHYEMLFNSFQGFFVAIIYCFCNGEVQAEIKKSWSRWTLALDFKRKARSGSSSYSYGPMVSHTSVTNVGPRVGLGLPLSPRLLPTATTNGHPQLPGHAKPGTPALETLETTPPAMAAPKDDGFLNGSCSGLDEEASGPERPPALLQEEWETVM
Description: The renal membrane assay values listed reflect the effect of the polypeptide analogue with kidney tissue receptors. The UMR-106-H5 assay values reflect the effect of the peptide analogue with rat bone tissue receptors. The Sa05-2 assay values reflect the effect of the peptides for human bone tissue receptors.

PTH receptor [4] = target: T1, PTH receptor; format: binding
Protocol: as §1, with “Receptor” for “Assays were conducted using UMR-160-H5 cells. These assays were performed as described in Cohen et al. (1991), J. Biological Chem., 266(3), 1997 and in the Experimental section, e.g. Example 11. Receptor”

PTH receptor [5] = target: T3, PTH receptor (Canis lupus familiaris, UniProt Q9TU31); format: binding, canine
T3 construct: canine renal plasma membranes; from tissue; host or cells: canine kidney (renal plasma membranes)
T3 sequence (Q9TU31 29-595): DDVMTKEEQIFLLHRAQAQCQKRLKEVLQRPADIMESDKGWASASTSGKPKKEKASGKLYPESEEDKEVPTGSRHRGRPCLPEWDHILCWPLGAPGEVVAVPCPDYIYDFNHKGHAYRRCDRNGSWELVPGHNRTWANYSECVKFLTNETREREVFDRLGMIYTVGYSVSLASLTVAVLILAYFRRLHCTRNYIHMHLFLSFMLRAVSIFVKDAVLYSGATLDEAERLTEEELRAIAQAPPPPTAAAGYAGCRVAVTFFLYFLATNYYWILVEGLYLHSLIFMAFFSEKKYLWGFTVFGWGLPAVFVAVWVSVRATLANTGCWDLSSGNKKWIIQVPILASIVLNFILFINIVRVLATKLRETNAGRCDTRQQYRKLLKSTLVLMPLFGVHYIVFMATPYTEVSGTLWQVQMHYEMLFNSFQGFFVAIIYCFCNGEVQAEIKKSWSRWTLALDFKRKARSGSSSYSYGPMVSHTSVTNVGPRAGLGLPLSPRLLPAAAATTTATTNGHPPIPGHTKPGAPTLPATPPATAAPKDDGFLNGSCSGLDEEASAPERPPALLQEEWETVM
Protocol: as §1, with “Receptor” for “Assays were conducted using UMR-160-H5 cells. These assays were performed as described in Cohen et al. (1991), J. Biological Chem., 266(3), 1997 and in the Experimental section, e.g. Example 11. Receptor”

PTH receptor [6] = target: T2, PTH receptor
PTH receptor [7] = target: T3, PTH receptor; format: biochemical, canine; conditions: for RENAL MEMBRANES Canine Activity (AC): Table 5B, hPTH(1-34) = 100
Protocol: as §1, with “Receptor” for “Assays were conducted using UMR-160-H5 cells. These assays were performed as described in Cohen et al. (1991), J. Biological Chem., 266(3), 1997 and in the Experimental section, e.g. Example 11. Receptor”

[8] = cited from earlier work
[9] = Table 5A, intact cells, hPTH(1-34) = 100

Molecule: CC[C@H](C)[C@H](NC(=O)[C@H](CCC(=O)O)NC(=O)[C@H](Cc1c[nH]cn1)NC(=O)[C@@H](NC(=O)[C@@H](N)CO)C(C)C)C(=O)N[C@@H](CCC(N)=O)C(=O)N[C@@H](CC(C)C)C(=O)N[C@@H](CCSC)C(=O)N[C@@H](Cc1c[nH]cn1)C(=O)N[C@@H](CC(N)=O)C(=O)N[C@@H](CC(C)C)C(=O)NCC(=O)N[C@@H](CCCCN)C(=O)N[C@@H](Cc1c[nH]cn1)C(=O)N[C@@H](CC(C)C)C(=O)N[C@@H](CC(N)=O)C(=O)N[C@@H](CO)C(=O)N[C@@H](CCSC)C(=O)N[C@@H](CCC(=O)O)C(=O)N[C@@H](CCCNC(=N)N)C(=O)N[C@H](C(=O)N[C@@H](CCC(=O)O)C(=O)N[C@@H](Cc1c[nH]c2ccccc12)C(=O)N[C@@H](CC(C)C)C(=O)N[C@@H](CCCNC(=N)N)C(=O)N[C@@H](CCCCN)C(=O)N[C@@H](CCCCN)C(=O)N[C@@H](CC(C)C)C(=O)N[C@@H](CCC(N)=O)C(=O)N[C@@H](CC(=O)O)C(=O)N[C@H](C(=O)N[C@@H](Cc1c[nH]cn1)C(=O)N[C@@H](CC(N)=O)C(=O)N[C@@H](Cc1ccccc1)C(=O)O)C(C)C)C(C)C [[his^3]hPTH(1-34), [his^3]HPTH(1-34)]
- BONE CELLS Rat(UMR-106) Potency (AC) (PTH receptor [1]): 4%
- BONE CELLS Rat(UMR-106) Activity (AC) (PTH receptor [1]): 100%
- KIDNEY CELLS (CK) Potency (B) (PTH receptors): 6%
- potency of native [ser^3]HPTH(1-34) retained in binding to PTH receptors (PTH receptors): 5-15%
- KIDNEY CELLS (CK) Potency (AC) (PTH receptor [2]): 13%
- BONE CELLS Human(SaOS-2) Potency (AC) (PTH receptor [3]): 5%
- BONE CELLS Human(SaOS-2) Activity (AC) (PTH receptor [3]; [9]): 100%
- BONE CELLS Rat(UMR-106) Potency (B) (PTH receptor [4]): 1%
- RENAL MEMBRANES Canine Potency (B) (PTH receptor [5]): 4%
- BONE CELL MEMBRANES Human SaOS-2 Potency (AC) (PTH receptor [6]): 11%
- BONE CELL MEMBRANES Human SaOS-2 Activity (AC) (PTH receptor [6]; Table 5B, hPTH(1-34) = 100): 14%
- RENAL MEMBRANES Canine Potency (AC) (PTH receptor [7]): 1%
- RENAL MEMBRANES Canine Activity (AC) (PTH receptor [7]): 43%

Molecule: CC[C@H](C)[C@H](NC(=O)[C@H](CCC(=O)O)NC(=O)[C@H](CO)NC(=O)[C@@H](NC(=O)[C@@H](N)CO)C(C)C)C(=O)N[C@@H](CCC(N)=O)C(=O)N[C@@H](CC(C)C)C(=O)N[C@@H](CCSC)C(=O)N[C@@H](Cc1c[nH]cn1)C(=O)N[C@@H](CC(N)=O)C(=O)N[C@@H](CC(C)C)C(=O)NCC(=O)N[C@@H](CCCCN)C(=O)N[C@@H](Cc1c[nH]cn1)C(=O)N[C@@H](CC(C)C)C(=O)N[C@@H](CC(N)=O)C(=O)N[C@@H](CO)C(=O)N[C@@H](CCSC)C(=O)N[C@@H](CCC(=O)O)C(=O)N[C@@H](CCCNC(=N)N)C(=O)N[C@H](C(=O)N[C@@H](CCC(=O)O)C(=O)N[C@@H](Cc1c[nH]c2ccccc12)C(=O)N[C@@H](CC(C)C)C(=O)N[C@@H](CCCNC(=N)N)C(=O)N[C@@H](CCCCN)C(=O)N[C@@H](CCCCN)C(=O)N[C@@H](CC(C)C)C(=O)N[C@@H](CCC(N)=O)C(=O)N[C@@H](CC(=O)O)C(=O)N[C@H](C(=O)N[C@@H](Cc1c[nH]cn1)C(=O)N[C@@H](CC(N)=O)C(=O)N[C@@H](Cc1ccccc1)C(=O)O)C(C)C)C(C)C [hPTH (1-34), hPTH(1-34), reference compound]
- BONE CELLS Rat(UMR-106) Potency (AC) (PTH receptor [1]): 100%
- UMR106-H5 CELLS Rat Bone Potency (AC) (PTH receptor [1]): 100%
- UMR106-H5 CELLS Rat Bone Activity (AC*) (PTH receptor [1]; Table 1(A), relative to hPTH(1-34) = 100%): 100%
- BONE CELLS Rat(UMR-106) Activity (AC) (PTH receptor [1]): 100%
- KIDNEY CELLS (CK) Potency (B) (PTH receptors; [9]): 100%
- KIDNEY CELLS (CK) Potency (AC) (PTH receptor [2]; [9]): 100%
- BONE CELLS Rat(UMR-106) Potency (B) (PTH receptor [4]): 100%
- UMR106-H5 CELLS Rat Bone Potency (B) (PTH receptor [4]): 100%
- RENAL MEMBRANES Canine Potency (B) (PTH receptor [5]): 100%
- RENAL MEMBRANES Canine Potency (AC) (PTH receptor [7]): 100%
- RENAL MEMBRANES Canine Activity (AC*) (PTH receptor [7]; Table 1(A), large doses, relative to hPTH(1-34) = 100%): 100%
- RENAL MEMBRANES Canine Activity (AC) (PTH receptor [7]): 100%

Molecule: [Gln^22, Lys^28, Leu^30 hPTH(1-34)
- loss of biological activity ([8]; Ref. 49, 50): 10-50 fold

Molecule: [SOMet^18 ]bPTH(1-84)
- activity of the native hormone retained ([8]; Ref. 49): ~50%
